From ChEMBL document CHEMBL4196088, “Induction of cell killing and autophagy by amphiphilic pyrrolidine derivatives on human pancreatic cancer cells” (Eur J Med Chem, 2018)

What was measured:
PANC-1 [1] = experiment: Growth inhibition of human PANC1 cells after 72 hrs by XTT assay; type: functional, cell-based; settings: PANC-1, 72 h
BXPC-3 = experiment: Growth inhibition of human BxPC3 cells after 72 hrs by XTT assay; type: functional, cell-based; settings: BXPC-3, 72 h
HeLa = experiment: Growth inhibition of human HeLa cells after 72 hrs; type: functional, cell-based
PK9 = experiment: Growth inhibition of human PK9 cells after 72 hrs by MTT assay; type: functional, cell-based; settings: PK9, 72 h
MIA PaCa-2 = experiment: Growth inhibition of human MIAPaCa2 cells after 72 hrs by MTT assay; type: functional, cell-based; settings: MIA PaCa-2, 72 h
PANC-1 [2] = experiment: Induction of apoptosis in human PANC1 cells assessed as accumulation at sub-G0/G1 phase at 10 uM after 24 hrs by propidium iodide staining based flow cytometry (reference value: 0.6 to 0.7%); type: functional
PANC-1 [3] = experiment: Induction of apoptosis in human PANC1 cells assessed as accumulation at sub-G0/G1 phase at 10 uM after 48 hrs by propidium iodide staining based flow cytometry (reference value: 0.2 to 2.9%); type: functional
PANC-1 [4] = experiment: Induction of apoptosis in human PANC1 cells assessed as accumulation at sub-G0/G1 phase at 20 uM after 24 hrs by propidium iodide staining based flow cytometry (reference value: 0.6 to 0.7%); type: functional
PANC-1 [5] = experiment: Induction of apoptosis in human PANC1 cells assessed as accumulation at sub-G0/G1 phase at 20 uM after 48 hrs by propidium iodide staining based flow cytometry (reference value: 0.2 to 2.9%); type: functional
PANC-1 [6] = experiment: Induction of apoptosis in human PANC1 cells assessed as accumulation at sub-G0/G1 phase at 10 uM after 72 hrs by propidium iodide staining based flow cytometry (reference value: 1.6 to 3.2%); type: functional
PANC-1 [7] = experiment: Induction of apoptosis in human PANC1 cells assessed as accumulation at sub-G0/G1 phase at 20 uM after 72 hrs by propidium iodide staining based flow cytometry (reference value: 1.6 to 3.2%); type: functional

Row | Structure (SMILES) | IC50 (PANC-1 [1]) | IC50 (BXPC-3) | IC50 (MIA PaCa-2) | IC50 (PK9) | further results
1 | O=CN1CCC[C@H]1COCCCCCCCCC/C=C/c1ccc(-c2ccccc2)cc1 | 56.7 µM | 66.7 µM |  |  | 
2 | CCCCCCCC/C=C/CCCCCCCCOC[C@@H]1C[C@@H](O)CN1C(=O)OC(C)(C)C |  |  |  |  | IC50 (HeLa): 29.5 µM
3 | Cc1ccc([S+]([O-])N2CCC[C@H]2COCCCCCCCCC/C=C/c2ccc(Oc3ccccc3)cc2)cc1 (some centres undefined) | > 100 µM |  |  |  | 
4 | C=CCCCCCCCCCOC[C@@H]1C[C@@H](O)CN1 |  |  |  |  | IC50 (HeLa): 39 µM
5 | CC(C)(C)OC(=O)N1C[C@H](O)C[C@H]1COCCCCCC/C=C/c1ccc(Oc2ccccc2)cc1 |  |  |  |  | IC50 (HeLa): 41 µM
6 | C(=C\c1ccc(-c2ccccc2)cc1)/CCCCCCOC[C@@H]1CCCN1.Cl | 5.3 µM | 5.7 µM | 2.9 µM | 3.2 µM | Activity (PANC-1 [2]): 0.9%; Activity (PANC-1 [3]): 1.6%; Activity (PANC-1 [4]): 2.3%; Activity (PANC-1 [5]): 2.1%; Activity (PANC-1 [6]): 4.7%; Activity (PANC-1 [7]): 4.3%
7 | O=CN1CCC[C@H]1COCCCCCCCCC/C=C/c1ccc(Oc2ccccc2)cc1 | 63.3 µM | 65 µM |  |  | 
8 | C=CCCCCCCOC[C@@H]1C[C@@H](O)CN1C(=O)OC(C)(C)C |  |  |  |  | IC50 (HeLa): 23 µM
9 | O=CN1CCC[C@H]1COCCCCCC/C=C/c1ccc(Oc2ccccc2)cc1 | 53.3 µM | 46.7 µM |  |  | 
10 | CC(C)(C)OC(=O)N1CCC[C@H]1COCCCCCCCC/C=C/c1ccc(-c2ccccc2)cc1 | 90 µM | 70 µM | 69.2 µM | > 100 µM | 
11 | CC(C)(C)OC(=O)N1C[C@H](O)C[C@H]1COCCCCCCCC/C=C/c1ccc(-c2ccccc2)cc1 |  |  |  |  | IC50 (HeLa): 37.5 µM
12 | O=CN1CCC[C@H]1COCCCCCC/C=C/c1ccc(-c2ccccc2)cc1 | 50 µM | 53.3 µM |  |  | 
13 | C(=C\c1ccc(-c2ccccc2)cc1)/CCCCCCCCOC[C@@H]1CCCN1.Cl | 5.3 µM | 5.3 µM | 3.7 µM | 3.9 µM | Activity (PANC-1 [2]): 1%; Activity (PANC-1 [3]): 2.3%; Activity (PANC-1 [4]): 0.9%; Activity (PANC-1 [5]): 3.2%; Activity (PANC-1 [6]): 12.2%; Activity (PANC-1 [7]): 10.6%
14 | CC(C)(C)OC(=O)N1CCC[C@H]1COCCCCCCCCC/C=C/c1ccc(Oc2ccccc2)cc1 | > 100 µM |  | 59.6 µM | > 100 µM | 
15 | CCCCCCCC/C=C/CCCCCCCCOC[C@@H]1C[C@@H](O)CN1 |  |  |  |  | IC50 (HeLa): 4 µM
16 | C(=C\c1ccc(Oc2ccccc2)cc1)/CCCCCCOC[C@@H]1CCCN1 | 30 µM | 49.7 µM | 7.4 µM | 11.4 µM | 
17 | CC(=O)N1CCC[C@H]1COCCCCCC/C=C/c1ccc(-c2ccccc2)cc1 | 65 µM | 50 µM |  |  | 
18 | CC(C)(C)OC(=O)N1CCC[C@H]1COCCCCCC/C=C/c1ccc(-c2ccccc2)cc1 | > 100 µM | > 100 µM | 23 µM | > 100 µM | 
19 | CC(C)(C)OC(=O)N1C[C@H](O)C[C@H]1COCCCCCC/C=C/c1ccc(-c2ccccc2)cc1 |  |  |  |  | IC50 (HeLa): 38.5 µM
20 | Cc1ccc([S+]([O-])N2CCC[C@H]2COCCCCCCCCC/C=C/c2ccc(-c3ccccc3)cc2)cc1 (some centres undefined) | > 100 µM | > 100 µM |  |  | 
21 | CC(C)(C)OC(=O)NCC(=O)N1CCC[C@H]1COCCCCCC/C=C/c1ccc(-c2ccccc2)cc1 | 66.7 µM | 66.7 µM |  |  | 
22 | C=CCCCCCCOC[C@@H]1CCCN1C(=O)OC(C)(C)C | 56.7 µM | 53.3 µM | 47.1 µM | 57.1 µM | 
23 | C=CCCCCCCCCCOC[C@@H]1CCCN1[S+]([O-])c1ccc(C)cc1 (some centres undefined) | 56.7 µM | 50 µM |  |  | 
24 | CC(C)(C)OC(=O)NCC(=O)N1CCC[C@H]1COCCCCCCCCC/C=C\c1ccc(Oc2ccccc2)cc1 | > 100 µM | > 100 µM |  |  | 
25 | CC(C)(C)OC(=O)N1C[C@H](O)C[C@H]1COCCCCCCCC/C=C/c1ccc(Oc2ccccc2)cc1 |  |  |  |  | IC50 (HeLa): 41 µM

Row | Structure (SMILES) | IC50 (PANC-1 [1]) | IC50 (BXPC-3) | IC50 (MIA PaCa-2) | IC50 (PK9) | further results
26 | CC(C)(C)OC(=O)NCC(=O)N1CCC[C@H]1COCCCCCCCCC/C=C/c1ccc(-c2ccccc2)cc1 | > 100 µM | > 100 µM |  |  | 
27 | CC(C)(C)OC(=O)N1C[C@H](O)C[C@H]1COCCCCCCCCC/C=C/c1ccc(-c2ccccc2)cc1 |  |  |  |  | IC50 (HeLa): 36.5 µM
28 | C(=C\c1ccc(Oc2ccccc2)cc1)/CCCCCCCCOC[C@@H]1CCCN1 | 50 µM | 43.3 µM | 18.3 µM | 20.8 µM | 
29 | CC(C)(C)OC(=O)N1CCC[C@H]1COCCCCCCCCC/C=C/c1ccc(-c2ccccc2)cc1 | 80 µM | 60 µM | 57.4 µM | > 100 µM | 
30 | CC(=O)N1CCC[C@H]1COCCCCCCCCC/C=C/c1ccc(Oc2ccccc2)cc1 | 65 µM | 73.3 µM |  |  | 
31 | CC(=O)N1CCC[C@H]1COCCCCCC/C=C/c1ccc(Oc2ccccc2)cc1 | 40 µM | 60 µM |  |  | 
32 | CC(=O)N1CCC[C@H]1COCCCCCCCCC/C=C/c1ccc(-c2ccccc2)cc1 | 70 µM | 56.7 µM |  |  | 
33 | O[C@H]1CN[C@H](COCCCCCC/C=C/c2ccc(Oc3ccccc3)cc2)C1 |  |  |  |  | IC50 (HeLa): 5.1 µM
34 | Cc1ccc([S+]([O-])N2CCC[C@H]2COCCCCCC/C=C/c2ccc(-c3ccccc3)cc2)cc1 (some centres undefined) | ≥ 100 µM | ≥ 100 µM |  |  | 
35 | C=CCCCCCCOC[C@@H]1CCCN1[S+]([O-])c1ccc(C)cc1 (some centres undefined) | 53.3 µM | 50 µM |  |  | 
36 | CC(C)(C)OC(=O)N1CCC[C@H]1COCCCCCCCC/C=C/c1ccc(Oc2ccccc2)cc1 | 90 µM | > 100 µM | > 100 µM | > 100 µM | 
37 | C=CCCCCCCCCCOC[C@@H]1C[C@@H](O)CN1C(=O)OC(C)(C)C |  |  |  |  | IC50 (HeLa): 39 µM
38 | CC(C)(C)OC(=O)N1CCC[C@H]1COCCCCCC/C=C/c1ccc(Oc2ccccc2)cc1 | 63.3 µM | 63.3 µM | 8.5 µM | 69.5 µM | 
39 | CC(C)(C)OC(=O)NCC(=O)N1CCC[C@H]1COCCCCCC/C=C/c1ccc(Oc2ccccc2)cc1 | 63.3 µM | 80 µM |  |  | 
40 | CCCCCCCC/C=C\CCCCCCCCOC[C@@H]1C[C@@H](O)CN1 |  |  |  |  | IC50 (HeLa): 3.9 µM
41 | C(=C\c1ccc(-c2ccccc2)cc1)/CCCCCCCCCOC[C@@H]1CCCN1.Cl | 7.3 µM | 7 µM | 8.3 µM | 5.5 µM | Activity (PANC-1 [2]): 1.6%; Activity (PANC-1 [3]): 1.9%; Activity (PANC-1 [4]): 7%; Activity (PANC-1 [5]): 2.2%; Activity (PANC-1 [6]): 8.4%; Activity (PANC-1 [7]): 11.6%
42 | C=CCCCCCCOC[C@@H]1CCCN1 | > 100 µM | > 100 µM | 72.9 µM | 57.7 µM | 
43 | CC(C)(C)OC(=O)N1C[C@H](O)C[C@H]1COCCCCCCCCC/C=C/c1ccc(Oc2ccccc2)cc1 |  |  |  |  | IC50 (HeLa): 45.9 µM
44 | Cc1ccc([S+]([O-])N2CCC[C@H]2COCCCCCC/C=C/c2ccc(Oc3ccccc3)cc2)cc1 (some centres undefined) | 60 µM | 50 µM |  |  | 
45 | CCCCCCCC/C=C\CCCCCCCCOC[C@@H]1C[C@@H](O)CN1C(=O)OC(C)(C)C |  |  |  |  | IC50 (HeLa): 40 µM
46 | C=CCCCCCCCCCOC[C@@H]1CCCN1 | 50 µM | 6.3 µM | 17.1 µM | 18.9 µM | 
47 | O[C@H]1CN[C@H](COCCCCCCCC/C=C/c2ccc(-c3ccccc3)cc2)C1 |  |  |  |  | IC50 (HeLa): 3.9 µM
48 | C(=C\c1ccc(Oc2ccccc2)cc1)/CCCCCCCCCOC[C@@H]1CCCN1 | 60 µM | 56.7 µM | 19.3 µM | 20.7 µM | 
49 | C=CCCCCCCOC[C@@H]1C[C@@H](O)CN1 |  |  |  |  | IC50 (HeLa): > 100 µM

Second part, led by results:

Row | IC50 (PANC-1 [1]) | IC50 (BXPC-3) | IC50 (MIA PaCa-2) | Structure (SMILES) | IC50 (PK9) | further results
50 | > 100 µM | > 100 µM | > 100 µM | CCCCCCCC/C=C/CCCCCCCCOC[C@@H]1CCCN1C(=O)OC(C)(C)C | > 100 µM | 
51 | 80 µM | > 100 µM | > 100 µM | CCCCCCCC/C=C\CCCCCCCCOC[C@@H]1CCCN1C(=O)OC(C)(C)C | > 100 µM | 
52 | > 100 µM | > 100 µM |  | CCCCCCCC/C=C\CCCCCCCCOC[C@@H]1CCCN1C(=O)[C@@H]1CCCN1C(=O)OC(C)(C)C |  | 
53 | > 100 µM | > 100 µM |  | CCCCCCCC/C=C\CCCCCCCCOC[C@@H]1CCCN1[S+]([O-])c1ccc(C)cc1 (some centres undefined) |  | 
54 | 5.3 µM | 5.3 µM | 4.2 µM | CCCCCCCC/C=C/CCCCCCCCOC[C@@H]1CCCN1.Cl | 9.2 µM | Activity (PANC-1 [2]): 1.6%; Activity (PANC-1 [3]): 2.6%; Activity (PANC-1 [4]): 1.2%; Activity (PANC-1 [5]): 5.3%; Activity (PANC-1 [6]): 8%; Activity (PANC-1 [7]): 2.5%
55 | 4.7 µM | 5.3 µM | 5.4 µM | CCCCCCCC/C=C\CCCCCCCCOC[C@@H]1CCCN1.Cl | 6.5 µM | Activity (PANC-1 [2]): 2.4%; Activity (PANC-1 [3]): 4.6%; Activity (PANC-1 [4]): 2.2%; Activity (PANC-1 [5]): 2.3%; Activity (PANC-1 [6]): 14.4%; Activity (PANC-1 [7]): 14.1%
56 | ≥ 100 µM | 50 µM | 50.3 µM | C=CCCCCCCCCCOC[C@@H]1CCCN1C(=O)OC(C)(C)C | > 100 µM | 
